Where two headings read alike, the source gives them in different places.
Legend:
human renin = target: T1, human renin (Homo sapiens, UniProt P00797); assay: Inhibitory effect on human renin-sheep renin substrate reaction system in vitro; assay type: biochemical
T1 sequence (P00797 67-406): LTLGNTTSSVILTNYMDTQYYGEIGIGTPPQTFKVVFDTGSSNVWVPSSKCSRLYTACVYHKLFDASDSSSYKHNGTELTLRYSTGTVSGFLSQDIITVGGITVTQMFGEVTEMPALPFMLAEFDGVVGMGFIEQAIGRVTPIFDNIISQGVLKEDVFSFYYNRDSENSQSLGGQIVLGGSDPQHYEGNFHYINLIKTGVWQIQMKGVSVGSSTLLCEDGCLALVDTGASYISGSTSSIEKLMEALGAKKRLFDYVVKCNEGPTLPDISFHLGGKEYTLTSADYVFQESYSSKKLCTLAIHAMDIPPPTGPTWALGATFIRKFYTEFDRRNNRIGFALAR
Procedure: Inhibitory effect on human renin-sheep renin substrate reaction system in vitro
The mixture was incubated for 15 minutes on a water bath at 37° C., and the reaction mixture was allowed to stand for 5 minutes on a water bath at 100° C. to stop the reaction. After cooling, 200 μl of the solution was taken up and the amount of angiotensin I produced by the addition of renin was determined by radioimmunoassay using renin riabead kit (DAINABOT).
The inhibitory effect was calculated by the following equation.
As a control, the same procedure as above was carried out by using 50 μl of dimethyl sulfoxide alone in place of the 50 μl of dimethyl sulfoxide solution containing an amino acid compound of the present invention. [formula]

[1] = target: T2, renin in human high renin plasma (Homo sapiens, UniProt P00797); assay: Renin inhibitory effect in a human high renin plasma; assay type: biochemical
T2 construct: from tissue; host or cells: human high renin plasma
T2 sequence (P00797 67-406): T1 sequence (P00797 67-406)
Procedure: Renin Inhibitory Effect in a Human High Renin Plasma
Two hundred μl of the mixture was placed on an ice bath, at 4° C., and remaining mixture (800 μl) was incubated for 60 minutes at 37° C. on a water bath. Two hundred μl of the incubated remaining mixture was chilled immediately on an ice bath, and the amount (A) of angiotensin I produced was determined by radioimmunoassay using renin riabead kit (DAINABOT).
The amount (B) of angiotensin I in the mixture placed on an ice bath at 4° C. was also determined by radioimmunoassay.
As a control, the same procedure as above was carried out by using 100 μl of dimethyl sulfoxide alone in place of 100 μl of dimethyl sulfoxide solution containing an amino acid compound of the present invention.
The net amount was estimated as the difference between A and B.
The inhibitory effect was calculated by the following equation. [formula]

[2] = human renin-sheep renin substrate system, pH 7.4, 37° C., 15 minutes, read-out: IC50 molar concentration
[3] = human high renin plasma, pH 7.0, 37° C., 60 minutes, read-out: IC50 molar concentration

| IC50 (human renin) | IC50 [1] | Compound | IC50 (human renin; [2]) | IC50 [1, 3] |
| --- | --- | --- | --- | --- |
| 29 nM | 230 nM | O=C(N[C@@H](Cc1c[nH]cn1)C(=O)N[C@@H](CC1CCCCC1)C(O)C(=O)OC1CCCC1)C(Cc1ccccc1F)Cc1ccccc1F (mixture of isomers) [Compound N, (2RS, 3S)-3-{N-[Bis(2-fluorobenzyl)acetyl]-L-histidyl}amino-4-cyclohexyl-2-hydroxybutyric acid cyclopentyl ester] | – | – |
| 60 nM | 540 nM | Cc1cccc(CC(Cc2cccc(C)c2)C(=O)N[C@@H](Cc2c[nH]cn2)C(=O)N[C@@H](CC2CCCCC2)C(O)C(=O)OC(C)C)c1 (mixture of isomers) [Compound Q, (2RS, 3S)-3-{N-[Bis(3-methylbenzyl)acetyl]-L-histidyl}amino-4-cyclohexyl-2-hydroxybutyric acid isopropyl ester] | – | – |
| 170 nM | 360 nM | COc1ccccc1CC(Cc1ccccc1OC)C(=O)N[C@@H](Cc1c[nH]cn1)C(=O)N[C@@H](CC1CCCCC1)C(O)C(=O)OC(C)C (mixture of isomers) [Compound R, (2RS, 3S)-3-{N-[Bis(2-methoxybenzyl)acetyl]-L-histidyl}amino-4-cyclohexyl-2-hydroxybutyric acid isopropyl ester] | – | – |
| 190 nM | 280 nM | CC(C)OC(=O)C(O)[C@H](CC1CCCCC1)NC(=O)[C@H](Cc1c[nH]cn1)NC(=O)C(Cc1ccccc1C#N)Cc1ccccc1C#N (mixture of isomers) [Compound T, (2RS, 3S)-3-{N-[Bis(2-cyanobenzyl)acetyl]-L-histidyl}amino-4-cyclohexyl-2-hydroxybutyric acid isopropyl ester] | – | – |
| 910 nM | 2600 nM | CC(C)OC(=O)C(O)[C@H](CC1CCCCC1)NC(=O)[C@H](Cc1c[nH]cn1)NC(=O)C(Cc1ccc2c(c1)OCO2)Cc1ccc2c(c1)OCO2 (mixture of isomers) [Compound V, (2RS, 3S)-3-{N-[Bis(3,4-methylenedioxybenzyl)acetyl]-L-histidyl}amino-4-cyclohexyl-2-hydroxybutyric acid isopropyl ester] | – | – |
| 58 nM | 280 nM | Cc1ccccc1CC(Cc1ccccc1C)C(=O)N[C@@H](Cc1c[nH]cn1)C(=O)N[C@@H](CC1CCCCC1)C(O)C(=O)OC(C)C (mixture of isomers) [Compound W, (2RS, 3S)-3-{N-[Bis(2-methylbenzyl)-acetyl]-L-histidyl}amino-4-cyclohexyl-2-hydroxybutyric acid isopropyl ester] | – | – |
| 1800 nM | 3400 nM | CC(C)CNC(=O)C(O)[C@H](CC1CCCCC1)NC(=O)[C@H](Cc1c[nH]cn1)NC(=O)C(Cc1cccc2c1OCO2)Cc1cccc2c1OCO2 (mixture of isomers) [Compound Y, (2RS, 3S)-3-{N-[Bis(2,3-methylenedioxybenzyl)acetyl]-L-histidyl}amino-4-cyclohexyl-2-hydroxybutyric acid isobutyl amide] | – | – |
| 19 nM | 130 nM | O=C(N[C@@H](Cc1cnc[nH]1)C(=O)N[C@@H](CC1CCCCC1)C(O)C(=O)OC(CF)CF)C(Cc1ccccc1)Cc1ccccc1 (stereo partly drawn) [Compound P] | – | – |

More lines, now with the values behind:

| Compound | IC50 (human renin) | IC50 [1] | IC50 (human renin; [2]) | IC50 [1, 3] |
| --- | --- | --- | --- | --- |
| CC(C)OC(=O)C(O)[C@H](CC1CCCCC1)NC(=O)[C@H](Cc1c[nH]cn1)NC(=O)C(Cc1ccccc1C(F)(F)F)Cc1ccccc1C(F)(F)F (mixture of isomers) [Compound B, (2RS, 3S)-3-{N-[Bis(2-trifluoromethylbenzyl)acetyl]-L-histidyl}amino-4-cyclohexyl-2-hydroxybutyric acid isopropyl ester] | 120 nM | 1200 nM | – | – |
| CC(C)OC(=O)C(O)[C@H](CC1CCCCC1)NC(=O)[C@H](Cc1c[nH]cn1)NC(=O)C(Cc1cccc(F)c1)Cc1cccc(F)c1 (mixture of isomers) [Compound D, (2RS, 3S)-3-{N-[Bis(3-fluorobenzyl)acetyl]-L-histidyl}amino-4-cyclohexyl-2-hydroxybutyric acid isopropyl ester] | 18 nM | 250 nM | – | – |
| CC(C)OC(=O)C(O)[C@H](CC1CCCCC1)NC(=O)[C@H](Cc1c[nH]cn1)NC(=O)C(Cc1ccccc1)Cc1ccccc1 (mixture of isomers) [Compound E, (2RS, 3S)-3-[N-(dibenzylacetyl)-L-histidyl}amino-4-cyclohexyl-2-hydroxybutyric acid isopropyl ester] | 52 nM | 260 nM | – | – |
| Cc1cccc(C)c1CC(Cc1c(C)cccc1C)C(=O)N[C@@H](Cc1c[nH]cn1)C(=O)N[C@@H](CC1CCCCC1)C(O)C(=O)OC(C)C (mixture of isomers) [Compound G, (2RS, 3S)-3-{N-[Bis(2,6-dimethylbenzyl)acetyl]-L-histidyl}amino-4-cyclohexyl-2-hydroxybutyric acid isopropyl ester] | 900 nM | 3300 nM | – | – |
| CC(C)OC(=O)C(O)[C@H](CC1CCCCC1)NC(=O)[C@H](Cc1c[nH]cn1)NC(=O)C(Cc1ccccc1Br)Cc1ccccc1Br (mixture of isomers) [Compound I, (2RS, 3S)-3-{N-[Bis(2-bromobenzyl)acetyl]-L-histidyl}amino-4-cyclohexyl-2-hydroxybutyric acid isopropyl ester] | 18 nM | 430 nM | – | – |
| CC(C)OC(=O)C(O)[C@H](CC1CCCCC1)NC(=O)[C@H](Cc1c[nH]cn1)NC(=O)C(Cc1ccc(Cl)cc1)Cc1ccc(Cl)cc1 (mixture of isomers) [Compound J, (2RS, 3S)-3-{N-[Bis(4-chlorobenzyl)acetyl]-L-histidyl}amino-4-cyclohexyl-2-hydroxybutyric acid isopropyl ester] | 470 nM | 5900 nM | – | – |
| O=C(N[C@@H](Cc1c[nH]cn1)C(=O)N[C@@H](CC1CCCCC1)C(O)C(=O)OC1CCCC1)C(Cc1ccccc1)Cc1ccccc1 (mixture of isomers) [Compound K, (2RS, 3S)-3-[N-(dibenzylacetyl)-L-histidyl]amino-4-cyclohexyl-2-hydroxybutyric acid cyclopentyl ester] | 18 nM | 280 nM | – | – |
| CC(C)OC(=O)C(O)[C@H](CC1CCCCC1)NC(=O)[C@H](Cc1c[nH]cn1)NC(=O)C(Cc1cccc2ccccc12)Cc1cccc2ccccc12 (mixture of isomers) [Compound L, (2RS, 3S)-3-{N-[Bis(1-naphthylmethyl)acetyl]-L-histidyl}amino-4-cyclohexyl-2-hydroxybutyric acid isopropyl ester] | 49 nM | 430 nM | – | – |
| Cc1cccc(CC(Cc2cccc(C)c2C)C(=O)N[C@@H](Cc2c[nH]cn2)C(=O)N[C@@H](CC2CCCCC2)C(O)C(=O)OC(C)C)c1C (mixture of isomers) [Compound M, (2RS, 3S)-3-{N-[Bis(2,3-dimethylbenzyl)acetyl]-L-histidyl}amino-4-cyclohexyl-2-hydroxybutyric acid isopropyl ester] | 77 nM | 860 nM | – | – |
| CC(C)OC(=O)C(O)[C@H](CC1CCCCC1)NC(=O)[C@H](Cc1c[nH]cn1)NC(=O)C(Cc1ccc(F)cc1)Cc1ccc(F)cc1 (mixture of isomers) [Compound O, (2RS, 3S)-3-{N-[Bis(4-fouorobenzyl)acetyl]-L-histidyl}amino-4-cyclohexyl-2-hydroxybutyric acid isopropyl ester] | – | – | 68 nM | 1200 nM |
| CC(C)OC(=O)C(O)[C@H](CC1CCCCC1)NC(=O)[C@H](Cc1c[nH]cn1)NC(=O)C(Cc1ccccc1O)Cc1ccccc1O (stereo partly drawn) [Compound C, (2RS 3S)-3-{N-[Bis(2-hydroxybenzyl)acetyl]-L-histidyl}amino-4-cyclohexyl-2-hydroxybutyric acid isopropyl ester] | – | – | 180 nM | 400 nM |
| (2RS, 3)-3-{N-[Bis(2-fluorobenzyl)acetyl]-L-histidyl}amino-4-cyclohexyl ester [Compound S] | – | – | 62 nM | 430 nM |
| (2RS, 3S)-3-{N-[Bis(2-chlorobenzyl)acetyl]-L-histidyl}amino-4-cyclohexyl-2-hydroxybutyric acid butyric acid isopropyl ester [Compound U] | – | – | 63 nM | 430 nM |

Reference: patent US4870183A, “Novel amino acid derivatives” (priority 1986, dated 1989)
